Consider nine molecules from patent US20220074923A1, “METHODS OF IDENTIFYING PARKIN-MEDIATED MITOPHAGY ACTIVATING AGENTS” (THE GOVERNING COUNCIL OF THE UNIVERSITY OF TORONTO, priority 2018, published 2022).

Structures are written as SMILES. Where only a bound is given, the exact number is not on record here.

Data set [1] has as its system differentiated SH-SY5Y cells. Briefly: Cell viability determination (ATP levels normalized to protein). The settings on record: 500 μM, 24 hours. The class given is cell-based. The protocol:
SH-SY5Y cells were differentiated according to previously established protocol consisting of sequential treatment with retinoic acid followed by brain-derived neurotrophic factor^10. Cells were then seeded into white 96-well plates with white bottom and allowed to adhere overnight. Varying doses of SR3677 were combined with 500 μM paraquat and administered for 24 hours. Controls treated with 0.5 μM SR3677, equivalent volume DMSO and paraquat alone were also included. Following 24-hour incubation, cell media was aspirated and THE lysis buffer (50 mM Tris-HCl, 100 mM NaCl, 0.1 mM EDTA) containing protease inhibitor cocktail was added to each well. Half of the lysate volume was removed and aliquoted into a separate 96-well plate. ATP levels were measured in the opaque plate using the ATP determination (ThermoFisher A22066) assay kit and protein concentrations were measured using the Pierce BCA (ThermoFisher #23225) assay kit. ATP levels were normalized to protein concentration and then by the ratio for cells treated with paraquat alone in a control well on each plate.

The subject of a further data set is Canton(S) flies. The data set is classed as in vivo, Drosophila. To be noted: 10 mM paraquat in food.
A further data set deals with Drosophila. The class given is in vivo. The settings on record: Canton(S), 10 mM paraquat. Here is the method: Fresh vials containing standard fly food supplemented with the indicated treatments were changed out every 2 days. The number of flies surviving each day was counted and log-rank tests were performed to determine statistical significance. 20 flies per treatment, n=5 (c) The climbing ability of flies treated as described in (a and bin) was assessed 4 days following initial administration of treatments. The number of flies to climb beyond 9.5 cm every 10 seconds was assessed. The percentage of flies in each treatment to cross this line was determined. The climbing ability of each treatment was normalized to the control group treated with water only. 20 flies per treatment, n=5. (d) The climbing ability of UAS-park^RNAi and ddc-GAL4>UAS-park^RNAi flies fed either paraquat or paraquat in combination with SR3677. 20 flies per treatment, n=7. (e) Proteins lysates from UAS-park^RNAi or tubulin>UAS-park^RNAi whole flies were separated by SDS-PAGE. Immunoblotting with anti-Parkin and anti-actin antibody was performed. (f) The climbing ability of TH-GAL flies fed either paraquat or paraquat in combination with SR3677. (g) Survival of heteroplasmic mt:Coll^T300l flies fed fly food supplemented with water or 2 mM SR3677 and wild-type Canton(S) flies (n=3 independent experiments). (h) The climbing ability of heteroplasmic mt:Coll^T300l flies fed either water or 2 mM SR3677 for 7 days. Log-rank tests were performed to determine p-values for survival analyses (a, b, g), *P<0.05. P-values were determined by one-tailed paired student's t-test for all climbing assays (c-e, h), *P<0.05. Data is expressed as mean±s.e.m. All error bars represent s.e.m
Male Canton(S) Drosophila were aged 7 days prior to feeding with standard fly food supplemented with water, 10 mM paraquat, 1 mM SR3677, or with combinations of these chemicals. Flies were placed into new vials containing fresh food supplemented with the treatments previously administered and 2 days later, climbing assays were performed. Flies were placed into plastic cylinder vials and tapped down, so all flies fell to the bottom. The number of flies to climb beyond 12.5 cm was counted every 10 s and values are represented as the percentage of total flies in each treatment group.

Another data set relates to S2R+ cells. The data set can be described thus: mitoSOX mitochondrial superoxide staining. The data set is classed as cell-based. To be noted: toxin alone. The protocol: A) Staining was performed with mitoSOX Red Mitochondrial Superoxide dye. B) Quantification of the fluorescence intensity of the mitoSOX probe in the indicated treatments (n=3). Data is presented as mean±s.e.m. P-values were determined by paired student's t-test, *P-value<0.05.
Whether SR3677 may protect against paraquat-induced phenotypes by interfering with paraquat's activity was also assessed. Paraquat gives rise to mitochondrial superoxide species that can be detected using mitoSOX, a fluorescent probe that is targeted to mitochondria, where it may be oxidized by superoxides. The oxidized mitoSOX species fluoresces upon encountering nucleic acid. The fluorescence intensity of Schneider's S2-R^+ cells, a cell line derived from dissociated embryos with a flat morphology amenable to imaging, was assessed following treatments with paraquat or paraquat and SR3677.

Data set [2] deals with HEK293 GFP Parkin cells. Briefly: High throughput small molecule screen for Parkin recruitment to mitochondria (high content imaging). The data set is classed as cell-based. The settings on record: for rank in the kinase inhibitor library screen (rank order by z-score): 4 μM, 16 h, then CCCP 2 h, rank out of 480, low rank = activator of Parkin recruitment, high rank = inhibitor. The protocol: 10 uL of 0.1 mg/mL Poly-D-Lys solution was added to 384-well plates for 5 minutes, followed by a PBS wash. Plates were dried for at least 2 hours. 50 μL of 600 000 HEK293 GFP Parkin cell/mL of DMEM was dispensed into each well. After 24 hours incubation to allow the cells to adhere, 200 nL of small molecules (or DMSO in columns 1, 2, 23 and 24) were pinned. Following a 16-hour incubation, 200 nL of 5 mM CCCP were added to all wells except columns 1 and 2, into which 200 nL of DMSO was added. Following 2-hour incubation, cells were fixed with 4% paraformaldehyde (PFA) and stained with 50 μL of 1 μg/mL DAPI solution for 15 minutes. After the final PBS wash, plates were ready for high content microscopy.
Images were acquired on IN Cell Analyzer 6000 (GE Healthcare), equipped with sCMOS camera (2048×2048), and 20x/0.45 NA Plan Fluor objective (Nikon) in open aperture mode using 1×1 binning. Image analysis was performed using Columbus Image Analysis System (PerkinElmer). Nuclei were initially detected in DAPI channel, followed by whole cell segmentation in GFP channel. Using PhenoLOGIC machine learning plug-in, cells were split into 2 sub-populations: cells with even GFP-Parkin distribution and cells where GFP-Parkin was localized to mitochondria. The percentage of cells with mitochondrial GFP-Parkin was determined per well. The molecules were then rank ordered based on z-score, which is calculated using the formula: […]
where x is the percentage of cells with mitochondrial GFP-Parkin for a specific small molecule, μ is the average percentage of cells with mitochondrial Parkin in positive control columns 23 and 24, where cells are treated with CCCP only.
These cell lines were screened across 2 biological replicates with compounds from the kinase inhibitor (n=480) and Prestwick (n=1120) collections. The 3-day screening protocol consisted of (1) seeding cells, (2) pinning small molecules at 4 μM concentration and (3) inducing mitophagy with CCCP, followed by processing of plates for high content imaging. Following image acquisition, DAPI staining was used to segment cells within each image. Supervised machine learning was used to classify cells into two classes: (1) cells with cytosolic Parkin distribution and (2) those with Parkin localized to mitochondria. […] Compounds which increased the proportion of class 2 cells across 2 biological replicates, compared to the CCCP-only treated cells (FIG. 10), as indicated by their z-score (FIG. 11), were considered hits.

Data set [3] deals with HEK293 GFP Parkin cells. Briefly: Parkin recruitment assay. The class given is cell-based. Here is the method:
HEK293 GFP Parkin cells were seeded into 12-well plates containing coverslips. Cells were treated with small molecules for 2 hours prior to mitophagy induction with 10 μM CCCP, unless indicated otherwise. Following fixation with 4% PFA, immunostaining was carried out using anti-ATP5A primary antibody and anti-mouse Alex Fluor 568.
To measure the percentage of cells with Parkin localized to mitochondria a 2 step process was employed: (1) whole cell segmentation based on GFP Parkin using CellProfiler software and (2) classification into Parkin distribution subpopulation using CellProfiler Analyst. The percentage of cells with Parkin localized to mitochondria was determined in each image. Images were taken at 20× magnification for this experiment, resulting in the classification of at least 300 cells in each treatment group per trial.

Data set [4] relates to HEK293 GFP Parkin cells. The data set can be described thus: Immunoblotting of mitochondrial protein degradation after CCCP. The class given is cell-based. The settings on record: 10 μM CCCP. The protocol: (a) HEK293 GFP Parkin cells were treated with varying doses of SR3677 for 2 hours prior to induction of mitophagy with 10 μM CCCP for one hour. The percentage of cells with mitochondrial Parkin increased in a dose-dependent manner. […] Cell lysates were harvested, proteins were separated by SDS-PAGE and immunoblotting was performed with anti-Mfn2 and anti-actin antibodies. (c) Ponceau VDAC1 levels in each sample normalized to Ponceau staining. (d) Mfn2/actin levels in CCCP treated cells. (e) Densitometry analysis was performed to quantify Mfn2 and VDAC1 levels in each sample (n=4 independent experiments).
HEK293 GFP Parkin cells co-treated with 0.5 μM SR3677 or DMSO and 10 μM CCCP for the indicated time (hours). Cell lysates were separated by SDS-PAGE and immunoblotting was performed to assess turnover of IMM/matrix substrates (A) ATP5A, (B) UQCRC2 and (C) COXIV. Densitometry analysis was performed. Protein levels were normalized to Ponceau. Data is expressed as mean±s.e.m (n=6, 7 and 8 for a, b and c, respectively. 4) P-values were determined by paired student's t-test, *P<0.05.
Lysates were harvested using lysis buffer (0.1M Tris HCl, 0.01% SDS, pH 9) with 1× protease inhibitor cocktail (BioShop, PIC002.1). Lysates were then heated at 95° C. for 20 minutes with vortexing performed at 5-minute intervals. The BCA assay (Pierce, 23227) was performed to determine protein concentration, to standardize protein loading across samples to be compared. 12% SDS-PAGE gels were used to run samples to be analyzed for LC3 conversation and for Tom20 and 10% gels were run for all other samples. Transfer of proteins onto PVDF membrane (Immobilon, IPVH00010) was performed at 110V for 80 minutes or at 36V for 8 hours. Membranes were blocked with 5% skim milk in TBST (1×TBS, 0.1% Tween-20 [BioShop, 1M23298]) for 30 minutes prior to incubation in primary antibodies at a dilution of 1:1000 for all antibodies except anti-ROCK2 and anti-LC3, which were used at a dilution of 1:5000. Visualization of proteins was performed using ECL (BioRad, 11705062).
Densitometry was performed by normalizing bands corresponding to the protein of interest to a loading control such as actin using ImageLab 6.0 software (BioRad).

A further data set has as its target ROCK2 (Homo sapiens, UniProt O75116). To be noted: biochemical and cell-based assays, previous studies; cited from earlier work.
For data set [5] the following is noted: cited from earlier work.

Sequence of ROCK2 (O75116 whole entry): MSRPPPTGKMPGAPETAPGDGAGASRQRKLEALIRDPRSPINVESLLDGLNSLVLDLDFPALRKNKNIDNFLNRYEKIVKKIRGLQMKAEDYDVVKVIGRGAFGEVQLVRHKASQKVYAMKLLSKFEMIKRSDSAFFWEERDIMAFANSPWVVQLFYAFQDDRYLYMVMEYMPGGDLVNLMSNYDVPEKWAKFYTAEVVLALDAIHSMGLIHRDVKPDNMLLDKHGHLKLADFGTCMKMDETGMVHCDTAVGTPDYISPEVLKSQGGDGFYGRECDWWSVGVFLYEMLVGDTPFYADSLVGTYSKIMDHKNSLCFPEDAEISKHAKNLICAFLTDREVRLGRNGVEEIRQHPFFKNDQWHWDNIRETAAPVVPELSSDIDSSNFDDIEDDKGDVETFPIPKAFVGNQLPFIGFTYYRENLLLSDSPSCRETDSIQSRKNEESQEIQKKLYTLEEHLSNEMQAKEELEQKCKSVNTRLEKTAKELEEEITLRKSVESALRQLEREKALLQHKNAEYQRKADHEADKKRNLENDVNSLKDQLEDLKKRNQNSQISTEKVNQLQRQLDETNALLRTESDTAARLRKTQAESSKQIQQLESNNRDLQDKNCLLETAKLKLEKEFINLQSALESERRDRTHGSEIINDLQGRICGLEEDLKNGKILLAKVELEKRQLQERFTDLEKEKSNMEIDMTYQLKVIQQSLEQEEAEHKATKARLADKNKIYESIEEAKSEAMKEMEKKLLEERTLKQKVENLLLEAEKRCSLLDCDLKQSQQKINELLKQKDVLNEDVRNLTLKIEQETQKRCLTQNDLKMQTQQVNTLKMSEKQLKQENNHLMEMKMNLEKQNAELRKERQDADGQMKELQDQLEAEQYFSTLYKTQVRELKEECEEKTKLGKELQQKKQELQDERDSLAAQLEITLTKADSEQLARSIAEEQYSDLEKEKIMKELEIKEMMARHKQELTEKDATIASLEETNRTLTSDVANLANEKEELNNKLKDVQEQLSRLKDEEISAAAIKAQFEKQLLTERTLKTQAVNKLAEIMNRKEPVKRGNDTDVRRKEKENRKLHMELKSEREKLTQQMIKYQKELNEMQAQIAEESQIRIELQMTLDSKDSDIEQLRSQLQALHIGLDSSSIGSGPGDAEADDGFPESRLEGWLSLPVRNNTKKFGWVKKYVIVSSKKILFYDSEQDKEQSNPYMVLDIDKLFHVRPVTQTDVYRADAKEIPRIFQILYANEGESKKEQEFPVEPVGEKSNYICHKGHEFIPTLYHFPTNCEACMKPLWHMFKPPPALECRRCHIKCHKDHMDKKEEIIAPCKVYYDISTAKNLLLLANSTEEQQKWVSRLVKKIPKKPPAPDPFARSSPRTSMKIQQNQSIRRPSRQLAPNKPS
Procedure for Canton(S) flies: Fresh vials containing standard fly food supplemented with the indicated treatments were changed out every 2 days. The number of flies surviving each day was counted and log-rank tests were performed to determine statistical significance. […] The number of flies to climb beyond 9.5 cm every 10 seconds was assessed. The percentage of flies in each treatment to cross this line was determined. The climbing ability of each treatment was normalized to the control group treated with water only. […] Log-rank tests were performed to determine p-values for survival analyses (a, b, g), *P<0.05. P-values were determined by one-tailed paired student's t-test for all climbing assays (c-e, h), *P<0.05. Data is expressed as mean±s.e.m. All error bars represent s.e.m
Drosophila aged 7 days are fed food supplemented with either water (control), 1 mM SR3677, 10 mM paraquat or SR3677 in combination with paraquat. The survival of flies was recorded each day following administration of the treatments and climbing abilities were tested every 2 days by performing negative geotaxis assays.

With `C[n+]1ccc(-c2cc[n+](C)cc2)cc1` [Paraquat], in [1], the “cell viability, paraquat alone” value is listed as “reduced the viability of cells”. Further, the “survival of flies, paraquat alone” value with Canton(S) flies is “reduced”. Also, in the data set with Drosophila, the “climbing ability, paraquat alone” value is listed as “impairs the climbing ability of flies over time”. The “fluorescence intensity of mitoSOX” value with S2R+ cells was “increases the fluorescence intensity of mitoSOX”.

Take `CC(C)(C)OO` [luperox]: the “fluorescence intensity of mitoSOX” value in the data set on S2R+ cells is reported as “increases the fluorescence intensity of mitoSOX”.

`NC(=O)Nc1cc(-c2cccc(F)c2)sc1C(=O)N[C@H]1CCCNC1` [AZD-7762]: in the data set on HEK293 GFP Parkin cells [2], the “rank in the kinase inhibitor library screen (rank order by z-score)” value is 413/480.

For the molecule `NC(=O)c1ccc2nc(-c3ccc(Oc4ccc(Cl)cc4)cc3)[nH]c2c1` [Chk2 inhibitor II], the “rank in the kinase inhibitor library screen (rank order by z-score)” value in the data set with HEK293 GFP Parkin cells [2] is recorded as 402/480.

Regarding `Cc1cnc(Nc2ccc(OCCN3CCCC3)cc2)nc1Nc1cccc(S(=O)(=O)NC(C)(C)C)c1` [TG-101348], in the data set on HEK293 GFP Parkin cells [2], the “rank in the kinase inhibitor library screen (rank order by z-score)” value was 418/480.

Turning to `CN[C@@H]1C[C@H]2O[C@@](C)([C@@H]1OC)n1c3ccccc3c3c4c(c5c6ccccc6n2c5c31)C(=O)NC4` [Staurosporine], the “position among hits of the screen” value in the data set with HEK293 GFP Parkin cells [2] (known activator of Parkin-mediated mitophagy) is at most 0.3%.

Turning to `O=C(Nc1ccncc1)Nc1c(Cl)cc(Cl)cc1Cl` [rho kinase inhibitor II], the “class in the screen (FIG. 1b)” value with HEK293 GFP Parkin cells [2] (ROCK inhibitors, 4 μM plus CCCP) is given as “Enhancers of Parkin recruitment”.

`C[C@@H](N)c1ccc(C(=O)Nc2ccnc3[nH]ccc23)cc1` [Y39983]: the “rank in the kinase inhibitor library screen (rank order by z-score)” value in the data set with HEK293 GFP Parkin cells [2] was 5/480. Moreover, the “Parkin recruitment on re-test” value in the data set on HEK293 GFP Parkin cells [3] (10 μM, 2-hour treatment, CCCP) was “recapitulated the effects observed following overnight incubation”. The “Parkin distribution in the absence of CCCP” value in the data set with HEK293 GFP Parkin cells [3] (compound alone) is recorded as “diffuse”. Besides, the “concentration administered to enhance Mfn2 degradation” value with HEK293 GFP Parkin cells [4] is 10 µM. In addition, the “Mfn2 degradation following CCCP” value with HEK293 GFP Parkin cells [4] (2 h pre-treatment, Y39983 10 μM, SR3677 0.5 μM) is on record as “Increased degradation of Mfn2”. The ROCK2 inhibition result on ROCK2 was “sufficiently inhibit both ROCK1 and ROCK2”. For the same molecule, the cell permeability result in [5] is listed as “poor cell permeability”.

Turning to `O=c1[nH]c2ccc(Cl)cc2c(N[C@@H]2CN3CCC2CC3)c1-c1nc2ccccc2[nH]1` [CHIR-124], the “rank in the kinase inhibitor library screen (rank order by z-score)” value in the data set with HEK293 GFP Parkin cells [2] is recorded as 403/480.
